Data from patent US20100204114A1, “USE OF A GALANIN PEPTIDE AS A THERAPEUTIC AGENT” (priority 2007, published 2010).
Where no end group is shown, it is not given here.

How the values were obtained:
[1] = tested on: hepatitis B virus (HBV) ayw strain in HepG2-2.2.15 cells; experiment: HBV experimental assay system, secreted HBV DNA by TaqMan PCR; format: cell-based; details: 10 micrograms per ml, six days
Excerpt: HepG2-2.2.15 is a stable cell line containing the hepatitis B virus (HBV) ayw strain genome (ATCC Cat. No. CRL-11997). Antiviral compounds blocking any late step of viral replication such as transcription, translation, pregenome encapsidation, reverse transcription, particle assembly and release can be identified and characterized using this cell line. In this assay, an active compound will reduce the production of secreted HBV from cells, measured by utilizing real time quantitative PCR (TaqMan) assay to directly and accurately measure HBV DNA copies.
HepG2-2.2.15 cells were plated in 96-well microtiter plates. After 16-24 hours the confluent monolayer of HepG2-2.2.15 cells was washed and the medium was replaced with complete medium containing test peptides—10 micrograms per ml—in duplicate. […] Six days following the initial administration of the peptides, the cell culture supernatants was collected, treated with pronase and DNAse and then used in a real-time quantitative TaqMan PCR assay. The PCR-amplified HBV DNA was detected in real-time by monitoring increases in fluorescence signals that result from the exonucleolytic degradation of a quenched fluorescence probe molecule that hybridizes to the amplified HBV DNA. […] Antiviral activity was calculated from the reduction in HBV DNA levels (% virus control). […]

[2] = tested on: spleen cells of Ovalbumin-immunized Balb/c mice; experiment: Th1/Th2 cytokine profiling assay (Ovalbumin-restimulated spleen cells, CBA kit); format: cell-based, mouse; details: 10 micrograms per ml; Ovalbumin restimulation; 72 hours
Excerpt: The Balb/c mice (originated in 1923, it is a popular strain and is used in many different research disciplines. […] On day 50, spleens of the mice were harvested (3 weeks after last boost with Ovalbumin). […] This kit can be used to measure Interleukin-2 (IL-2), Interleukin-4 (IL-4), Interleukin-5 (IL-5), Interferon-γ (IFN-γ), and Tumor Necrosis Factor-α (TNF-α) protein levels in a single sample. The kit performance has been optimized for analysis of physiologically relevant concentrations ([…] levels) of specific cytokine proteins in tissue culture supernatants and serum samples.

[3] = tested on: Primary Human endothelial cells (HUVEC); experiment: Endothelial cell migration assay; format: cell-based; details: 10 micrograms per ml, 22 hours
[4] = tested on: HUVEC; experiment: Endothelial tube formation assay; format: cell-based, human; details: 10 micrograms per ml, 20 hours
[5] = tested on: HCMV strain AD169; experiment: HCMV plaque formation assay in MRC-5 cells; details: for inhibition of HCMV plaque formation as compared to the virus control: 10 micrograms per ml, 7-10 days
[6] = tested on: HIV-1IIIB; experiment: HIV-1 antiviral assay in CEM-SS cells (MTS readout); format: cell-based

Molecule	inhibition of HBV replication as compared to the virus control infection [1]	IFNγ spleen cells; TH1 response (% of control) [2]	IL-2 spleen cells (% of control) [2]	IL-4 spleen cells; TH2 response (% of control) [2]	IL-5 spleen cells; TH2 response (% of control) [2]	TNF-a spleen cells; TH1 response (% of control) [2]	inhibition of the migration of human endothelial cells [3]	inhibition of the tube formation of endothelial cells [4] [%]	inhibition of HCMV plaque formation as compared to the virus control [5]	antiviral activity of positive control compounds (HIV-1) [6]	antiviral activity of positive control compound (HCMV) ([5]; positive control)
Ile-Tyr-Leu-Gly-Gly-Pro-Phe-Ser-Pro-Asn-Val-Leu-OH (IYLGGPFSPNVL-OH) [peptide 2]	34.1%	102.8 % of control	150.7 % of control	182.0 % of control	73.5 % of control	114.1 % of control	did not inhibit	29	did not inhibit		
CC(C)(C)NC(=O)[C@@H]1CN(Cc2cccnc2)CCN1C[C@@H](O)C[C@@H](Cc1ccccc1)C(=O)N[C@H]1c2ccccc2C[C@H]1O [indinavir]										expected levels of antiviral activity	
Gly-Trp-Thr-Leu-Asn-Ser-Ala-Gly-Tyr-Leu-Leu-Gly-Pro-His-Ala-Val-Gly-Asn-His-Arg-Ser-Phe-Ser-Asp-Lys-Asn-Gly-Leu-Thr-Ser-OH [peptide 1]	no effect	144.1 % of control	149.6 % of control	115.3 % of control	78.8 % of control	118.8 % of control	29%	11	did not inhibit		
Cc1cn([C@H]2C[C@H](N=[N+]=[N-])[C@@H](CO)O2)c(=O)[nH]c1=O [AZT]										expected levels of antiviral activity	
Nc1nc(O)c2ncn(COC(CO)CO)c2n1 [Ganciclovir, reference compound]											expected levels of antiviral activity
